Test results published in paper PMC12024193, “Engineered Lysin-Derived Peptide as a Potent Antimicrobial for Acne Vulgaris” (Antibiotics, 2025).

Tests used:
S. aureus strain USA300 = assay: One-hour killing assay with or without retinoic acid; type: cell-based, Staphylococcus aureus; conditions: MRSA USA300, 1 h, Tris pH 7.2, 37 °C, triplicate
Protocol: (§1) Unless stated otherwise, the standard conditions for killing assays involved statically treating exponential phase bacteria at approximately 5 × 10^5 CFU/mL with a lysin-derived peptide at 25 μg/mL in a 96-well microtiter plate under aerobic (S. aureus) or anaerobic conditions (C. acnes and S. aureus) in 20 mM Tris (Fisher Scientific), pH 7.2, for 1 h at 37 °C. For dose–response killing assays, peptide concentrations ranging from 1 up to 125 μg/mL were tested.
For measuring the effect of retinoid on peptide bactericidal activity, S. aureus strain USA300 at 10^6 CFU/mL was treated with or without P156 at 25 μg/mL in buffer supplemented with all-trans-retinoic acid (Sigma-Aldrich) at 0.01–0.1% (w/v).
Each killing assay comprised an untreated control (bacteria absent peptide) for every condition tested. After 1 h, 100 μL directly from the sample, as well as 5 μL of each dilution from a 10-fold serial dilution, were plated on either TSB agar (for S. aureus killing assays using aerobic conditions), rTSB agar (for S. aureus killing assays using anaerobic conditions), or rTSB agar with 2% glycerol (for C. acnes killing assays) in order to quantitate bacterial viability. The LOD for each experiment was 10 CFU/mL, with one exception. […] For statistical analysis, p-values were calculated using an unpaired t-test due to each lysin or peptide dose being compared individually to the untreated group. […]

C. acnes = assay: One-hour killing assay against C. acnes (dose-response; temperature, pH and NaCl variations); type: cell-based, Cutibacterium acnes
Protocol: (§2) Bacterial strains used in this study are outlined in Table 2 and were stored at −80 °C. C. acnes strains were grown in a BACTRON900 anaerobic chamber (Sheldon Manufacturing Inc., Cornelius, OR, USA) at 37 °C to exponential phase in reduced Trypticase Soy Broth (rTSB, BD Biosciences, Franklin Lakes, NJ, USA) supplemented with 2% (v/v) glycerol. S. aureus strains were grown either aerobically or anaerobically at 37 °C to the exponential phase in TSB (aerobic growth) or rTSB (anaerobic growth).
as §1
To evaluate the effect salt has on the antibacterial activity of the peptide, C. acnes strain ATCC 6919 was treated with P156 in buffer supplemented with 0-500 mM NaCl. The bactericidal potency of P156 in a broad pH range was assayed by treating C. acnes strain ATCC 6919 with the peptide in either 20 mM 2-(N-morpholino) ethanesulfonic acid (MES, pH 5.5–6.5; Fisher Scientific), sodium phosphate buffer (NaPO4, pH 6.5–7.0), or Tris (pH 7.0–8.0).
(§3) Temperature-based killing assays were performed by initially thawing a frozen aliquot of P156, which was then stored at 4 °C for a month. This was the only experiment where an aliquot of a lysin-derived peptide was stored for an extended period of time at a temperature other than −80 °C. Next, C. acnes strain ATCC 6919 was treated with the above-mentioned P156 aliquot in buffer at 15 °C to 40 °C. For these experiments, separate aliquots of both the bacteria at 10^6 CFU/mL and peptide at 50 μg/mL were initially equilibrated to the temperature being assayed for 5 min in 1.7 mL microcentrifuge tubes using an EchoTherm chilling/heating plate (Torrey Pines Scientific, Carlsbad, CA, USA). The bacteria and peptide were then mixed together 1:1 in a microcentrifuge tube, yielding respective final concentrations of 5 × 10^5 CFU/mL and 25 μg/mL, and subsequently incubated in the chilling/heating plate for 1 h.
(§4) Each killing assay comprised an untreated control (bacteria absent peptide) for every condition tested. After 1 h, 100 μL directly from the sample, as well as 5 μL of each dilution from a 10-fold serial dilution, were plated on either TSB agar (for S. aureus killing assays using aerobic conditions), rTSB agar (for S. aureus killing assays using anaerobic conditions), or rTSB agar with 2% glycerol (for C. acnes killing assays) in order to quantitate bacterial viability. The LOD for each experiment was 10 CFU/mL, with one exception. For the dose–response killing assay evaluating the collection of peptides against C. acnes, only the 10-fold serial dilutions from each sample were plated, resulting in an LOD of 200 CFU/mL. Experiments performed under anaerobic conditions used agar plates that were reduced overnight. Additionally, buffers for these particular assays were made fresh the day of the experiment and reduced for 2 h prior to use. Error bars correspond to the standard error of the mean (SEM) of two or three biological replicates. For statistical analysis, p-values were calculated using an unpaired t-test due to each lysin or peptide dose being compared individually to the untreated group. Additionally, to ensure clarity in presenting statistical significance, we used three types of statistical markers to highlight differences: ns, not significant, * p < 0.05 and a <3-log CFU reduction (with respect to the untreated group), ** p < 0.05 and a ≥3-log CFU reduction (with respect to the untreated group).

S. aureus = assay: One-hour killing assay against S. aureus (aerobic or anaerobic growth); type: cell-based, Staphylococcus aureus; conditions: 20 mM Tris, pH 7.2, 1 h, 37 °C
Protocol: as §2, §1, §4

[1] = system: C. acnes strain ATCC 6919; assay: Time-kill assay; type: cell-based, Cutibacterium acnes; conditions: 25 μg/mL, 20 mM Tris, pH 7.2, 37 °C, three biological replicates
Protocol: Using an EchoTherm chilling/heating plate, separate aliquots of both C. acnes strain ATCC 6919 at 10^6 CFU/mL and P156 at 50 μg/mL in 20 mM Tris, pH 7.2, were equilibrated to 37 °C for 10 min in 1.7 mL microcentrifuge tubes. The bacteria and peptide were then combined 1:1 in a microcentrifuge tube to obtain final concentrations of 5 × 10^5 CFU/mL and 25 μg/mL, respectively. An untreated control (bacteria without peptide) was also included. The samples were incubated for a total of 30 min at 37 °C. At 1, 5, 10, 15, 20, 25 and 30 min, an aliquot was removed. Both 100 μL directly from the sample, as well as 5 μL of each dilution from a 10-fold serial dilution, were plated on rTSB agar supplemented with 2% (v/v) glycerol in order to assess bacterial viability. The LOD was 10 CFU/mL. Error bars correspond to ±SEM of three biological replicates. For statistical analysis, p-values were calculated using an unpaired t-test between the untreated group and the peptide-treated group at each time point. ** p < 0.05 and a ≥3-log CFU reduction (with respect to the untreated group).

[2] = system: C. acnes strain ATCC 6919; assay: Storage stability: bactericidal activity after thawing from -80 °C and four weeks at 4 °C; type: physicochemical, Cutibacterium acnes; conditions: thawed from -80 °C, stored four weeks at 4 °C; read-out bactericidal activity at 25 μg/mL against C. acnes ATCC 6919
Protocol: as §3

[3] = 25 μg/mL, ATCC 6919, 1 h, 37 °C

Molecule | antibacterial effect of retinoic acid alone on S. aureus (S. aureus strain USA300; 0.01-0.1% retinoic acid) | log reduction of bacterial counts at each temperature assayed (C. acnes; 25 μg/mL, ATCC 6919, 15-40 °C, 1 h, peptide stored four weeks at 4 °C) | bactericidal effect at elevated pH levels (up to 7.6) (C. acnes; [3]) | bactericidal effect within pH 6-7 (C. acnes; [3]) | log reduction of C. acnes populations in 50 mM NaCl (C. acnes; [3]) | log CFU reduction (below LOD) at under 25 mM NaCl / lower salt concentrations (C. acnes; 25 μg/mL, ATCC 6919, 1 h, 37 °C, LOD 10 CFU/mL) | log reduction of C. acnes CFU counts (below LOD) at 20 °C to 40 °C (C. acnes; 25 μg/mL, ATCC 6919, 1 h, peptide stored four weeks at 4 °C, LOD 10 CFU/mL, triplicate) | antibacterial activity at high salt concentrations (C. acnes; 25 μg/mL, ATCC 6919, NaCl, 1 h, 37 °C) | log reduction of CFU counts at ≤50 mM NaCl (C. acnes; 25 μg/mL, ATCC 6919, buffer supplemented with NaCl, 1 h, 37 °C, triplicate) | log kill of all C. acnes strains tested (C. acnes; peptide at 5 μg/mL, seven strains, 20 mM Tris, pH 7.2, 1 h, 37 °C) | log CFU reduction of all C. acnes strains (below LOD) (C. acnes; peptide at 25 μg/mL, 20 mM Tris, pH 7.2, 1 h, 37 °C) | concentration lowering the viability of all C. acnes strains below the LOD (C. acnes; seven strains, 20 mM Tris, pH 7.2, 1 h, 37 °C, LOD 200 CFU/mL, duplicate) | lowest concentration reducing CFU counts of all S. aureus strains below the LOD (S. aureus; aerobic, strains 8325, USA300, USA400, LOD 10 CFU/mL) | log kill of all S. aureus strains tested (S. aureus; peptide at 5 μg/mL) | log CFU reduction of all S. aureus strains (below LOD) (S. aureus; peptide at 25 μg/mL) | log kill of MRSA strain USA300 grown under anaerobic conditions (S. aureus; peptide at 25 μg/mL, anaerobic, LOD 10 CFU/mL, triplicate) | log reduction in bacterial CFU in 10 min [1] | log reduction in bacterial CFU within 1 min [1] | log CFU reduction of S. aureus in the presence of 0.01-0.1% retinoic acid (S. aureus strain USA300; P156 at 25 μg/mL, LOD 10 CFU/mL) | stability after four weeks of storage at 4 °C [2]
CC1=C(/C=C/C(C)=C/C=C/C(C)=C/C(=O)O)C(C)(C)CCC1 [retinoic acid, all-trans-retinoic acid, reference compound] | no antibacterial effect | – | – | – | – | – | – | – | – | – | – | – | – | – | – | – | – | – | – | –
RRKAKAPRAEIYAQFNKWVYAGGKKLSGLVKRRRR [Peptide P156, variant peptide engineered by adding arginine residues at both the N- and C-terminal ends of the parental peptide PiP01] | – | > 4 logs | able to eradicate C. acnes | complete bacterial eradication | 3 logs | > 4 log CFU | > 5 logs | lack of antibacterial activity | > 3 log CFU | ≥ 3 log | > 4 log CFU | ≥ 5 µg/mL | 5 µg/mL | ≥ 3 log | > 4 log CFU | > 5 log | > 5 log | > 3 log | > 5 log CFU | remains stable and active
